Here are results for 8 compounds from patent publication USRE36477E, “Benzoic acid derivatives and process for preparing the same” (Taiho Pharmaceutical Co., Ltd., priority 1988, dated 1999).

This test deals with human acute promyelocytic leukemia cells (HL-60). Briefly: Differentiation of human acute promyelocytic leukemia cells (HL-60), morphological changes of nuclei and NBT reduction. Format: cell-based. The note with it: for EC50: Homo sapiens, read-out: ED50 (effective doses which cause differentiation of 50% of the cultured cells). The procedure:
The test of the activities of the compounds of this invention has been conducted by measuring the concentration required for inducing the differentiation of human acute promyelocytic leukemia cells (HL 60), according to the methods described in detail hereinafter.
The HL-60 cells are cultured in plastic flasks in RPMI 1640 medium supplemented with 5% heat-inactivated fetal calf serum and antibiotics (penicillin G and streptomycin). The cells (3×10^4 /ml) are cultured with a compound of the present invention for 4 days. The cells are fixed and stained with Wright-Giemsa to examine the morphological changes of the nuclei. […] The biochemical activity of cells treated with the compound is measured as follows:
The cells after 5 days incubation are centrifuged and diluted with RPMI 1640 medium, supplemented with 5% fetal calf serum, to provide a definite number of the cells. To the diluted cell suspension are then added 200 ng/ml of 12-o-tetradodecanoylphorbol-13-acetate (TPA) and the resulting culture medium is then incubated for 20 minutes at 37° C. in the presence of 0.1% of NBT. Thus, the mature differentiated cells containing blue-black formazan are counted by microscope, so that the ratio of the cells having the ability to reduce NBT, to total cells, can be calculated.
As a positive control for comparison, the known compounds represented by the formula (II) and trans retinoic acid were used.

Each structure is given as a SMILES string. Read-outs that look alike come from different tables or passages of the source.

Consider `CC1=C(/C=C/C(C)=C/C=C/C(C)=C/C(=O)O)C(C)(C)CCC1` [retinoic acid], for which, for the setting “HL-60 cells, 4 days culture, Wright-Giemsa stain”, the “morphological changes of the nuclei (differentiation)” value is “differentiated to mature granulocytes (myelocytes, metamyelocytes and neutrophiles)”. Also, where the note is “HL-60, 96 h”, the EC50 came to 0.002 µM. As to `C[Si](C)(C)c1cc(C(=O)/C=C/c2ccc(C(=O)O)cc2)cc([Si](C)(C)C)c1`, the EC50 (HL-60, 96 h) was 0.0002 µM. Consider `CC(C)(C)c1cccc(C(=O)/C=C/c2ccc(C(=O)O)cc2)c1`, for which, where the note is “96 h, HL-60 cells, Table 1”, the EC50 amounted to 0.1 µM. Take `C[Si](C)(C)c1cccc(/C=C/c2ccc(C(=O)O)cc2)c1`: where the note is “HL-60, 96 h”, the EC50 amounted to 0.06 µM. In the case of `C[Si](C)(C)c1cc(NC(=O)c2ccc(C(=O)O)cc2)cc([Si](C)(C)C)c1`, for the setting “96 h, HL-60 cells, Table 1”, the EC50 is 0.02 µM. Regarding `CC(C)(C)c1cc(C(=O)/C=C/c2ccc(C(=O)O)cc2)cc(C(C)(C)C)c1`, the EC50 (96 h, HL-60 cells, Table 1) is 0.0004 µM. Regarding `CC(C)(C)c1cccc(NC(=O)c2ccc(C(=O)O)cc2)c1`, the EC50 (96 h, HL-60 cells, Table 1) was 1 µM. For the compound `C[Si](C)(C)c1cccc(NC(=O)c2ccc(C(=O)O)cc2)c1`, the EC50 (HL-60, 96 h) was found to be 0.08 µM.
